From US20240269139A1, “COMPOUNDS FOR TARGETED PROTEIN DEGRADATION OF KINASES” (DANA-FARBER CANCER INSTITUTE, INC., priority 2020, published 2024)
Where two headings read alike, the source gives them in different places.

Key:
[1] = biological target: T1, protein kinases (human kinome) (Homo sapiens, UniProt Q9NYY8); format: cell-based; details: direction down
T1 sequence (Q9NYY8 1-710): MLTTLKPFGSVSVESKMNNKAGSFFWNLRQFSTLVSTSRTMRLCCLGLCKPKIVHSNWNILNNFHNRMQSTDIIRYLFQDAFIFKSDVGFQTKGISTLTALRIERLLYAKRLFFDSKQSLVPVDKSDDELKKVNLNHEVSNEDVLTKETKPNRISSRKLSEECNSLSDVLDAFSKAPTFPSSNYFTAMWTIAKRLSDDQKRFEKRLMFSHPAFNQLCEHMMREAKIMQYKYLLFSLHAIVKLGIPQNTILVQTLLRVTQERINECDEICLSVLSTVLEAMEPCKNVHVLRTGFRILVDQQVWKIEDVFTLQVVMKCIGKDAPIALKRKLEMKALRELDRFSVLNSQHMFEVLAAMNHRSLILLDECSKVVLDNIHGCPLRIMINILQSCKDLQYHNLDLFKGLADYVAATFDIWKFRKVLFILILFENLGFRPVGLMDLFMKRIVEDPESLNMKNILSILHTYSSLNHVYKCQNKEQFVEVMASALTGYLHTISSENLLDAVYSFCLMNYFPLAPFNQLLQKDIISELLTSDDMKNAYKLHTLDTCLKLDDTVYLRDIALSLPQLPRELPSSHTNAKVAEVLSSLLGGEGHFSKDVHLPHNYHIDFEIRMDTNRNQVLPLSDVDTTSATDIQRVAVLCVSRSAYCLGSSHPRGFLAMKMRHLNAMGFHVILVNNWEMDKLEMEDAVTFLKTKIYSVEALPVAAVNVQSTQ

[2] = system: protein kinases (human kinome); format: cell-based; details: for logFC RPS6KA1: RPS6KA1 (Q15418-2); for logFC PDK3: PDK3 (Q15120-2); for logFC of SRC: Accession P12931-2; for logFC LCK: accession P06239-3; for logFC LCK / logFC LCK (P06239-3): direction of change down
[3] = biological target: T2, extended human kinome (kinase-like proteins) (Homo sapiens, UniProt P54886); assay: Whole cell quantitative proteomics: extended kinome hits; details: Accession P54886
T2 sequence (P54886 1-795): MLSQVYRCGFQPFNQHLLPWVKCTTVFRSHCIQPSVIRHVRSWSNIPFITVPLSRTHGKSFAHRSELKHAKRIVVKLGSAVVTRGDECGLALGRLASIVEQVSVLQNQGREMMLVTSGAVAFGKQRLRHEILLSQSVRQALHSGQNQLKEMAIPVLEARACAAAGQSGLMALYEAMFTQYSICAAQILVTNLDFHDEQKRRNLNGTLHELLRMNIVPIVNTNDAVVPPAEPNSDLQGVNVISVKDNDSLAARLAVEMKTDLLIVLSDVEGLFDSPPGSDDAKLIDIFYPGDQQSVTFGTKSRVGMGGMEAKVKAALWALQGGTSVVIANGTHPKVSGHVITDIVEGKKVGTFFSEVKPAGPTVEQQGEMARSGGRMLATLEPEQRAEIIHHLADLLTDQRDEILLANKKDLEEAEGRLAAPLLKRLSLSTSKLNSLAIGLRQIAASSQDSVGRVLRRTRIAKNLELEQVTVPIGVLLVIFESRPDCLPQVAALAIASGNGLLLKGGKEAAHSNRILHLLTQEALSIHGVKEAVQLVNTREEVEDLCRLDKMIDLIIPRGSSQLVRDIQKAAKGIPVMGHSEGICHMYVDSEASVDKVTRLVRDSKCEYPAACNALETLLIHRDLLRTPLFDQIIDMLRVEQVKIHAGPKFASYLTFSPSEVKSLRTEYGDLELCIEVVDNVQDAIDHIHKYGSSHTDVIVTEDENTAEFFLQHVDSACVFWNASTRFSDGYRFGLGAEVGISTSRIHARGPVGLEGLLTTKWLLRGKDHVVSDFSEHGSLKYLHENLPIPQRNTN

[4] = biological target: protein kinases (human kinome) (Homo sapiens, UniProt P53671); format: cell-based; details: for logFC LIMK2: LIMK2 (P53671), down; for logFC of LIMK2: LIMK2 P53671
Sequence of protein kinases (human kinome) (Homo sapiens, UniProt P53671) (P53671 whole entry): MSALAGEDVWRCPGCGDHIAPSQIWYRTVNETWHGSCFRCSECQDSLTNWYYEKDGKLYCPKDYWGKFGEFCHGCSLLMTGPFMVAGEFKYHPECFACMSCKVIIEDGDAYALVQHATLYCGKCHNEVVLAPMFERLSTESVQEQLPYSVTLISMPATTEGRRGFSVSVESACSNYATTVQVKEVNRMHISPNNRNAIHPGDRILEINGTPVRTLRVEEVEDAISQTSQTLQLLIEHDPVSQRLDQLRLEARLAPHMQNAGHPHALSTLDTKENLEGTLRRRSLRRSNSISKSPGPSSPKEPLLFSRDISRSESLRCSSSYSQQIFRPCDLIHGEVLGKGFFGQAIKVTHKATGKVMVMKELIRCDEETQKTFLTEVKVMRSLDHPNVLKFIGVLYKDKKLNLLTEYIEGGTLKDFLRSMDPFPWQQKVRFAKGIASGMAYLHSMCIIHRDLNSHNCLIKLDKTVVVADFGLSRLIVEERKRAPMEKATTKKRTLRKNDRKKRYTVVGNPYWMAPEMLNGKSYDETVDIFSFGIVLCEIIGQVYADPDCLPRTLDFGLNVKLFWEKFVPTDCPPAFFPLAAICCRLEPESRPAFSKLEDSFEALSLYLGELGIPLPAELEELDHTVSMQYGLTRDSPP

[5] = biological target: protein kinases (human kinome) (Homo sapiens, UniProt P51451); format: cell-based; details: for logFC BLK: BLK (P51451), direction down; for logFC of BLK (P51451): down
Sequence of protein kinases (human kinome) (Homo sapiens, UniProt P51451) (P51451 whole entry): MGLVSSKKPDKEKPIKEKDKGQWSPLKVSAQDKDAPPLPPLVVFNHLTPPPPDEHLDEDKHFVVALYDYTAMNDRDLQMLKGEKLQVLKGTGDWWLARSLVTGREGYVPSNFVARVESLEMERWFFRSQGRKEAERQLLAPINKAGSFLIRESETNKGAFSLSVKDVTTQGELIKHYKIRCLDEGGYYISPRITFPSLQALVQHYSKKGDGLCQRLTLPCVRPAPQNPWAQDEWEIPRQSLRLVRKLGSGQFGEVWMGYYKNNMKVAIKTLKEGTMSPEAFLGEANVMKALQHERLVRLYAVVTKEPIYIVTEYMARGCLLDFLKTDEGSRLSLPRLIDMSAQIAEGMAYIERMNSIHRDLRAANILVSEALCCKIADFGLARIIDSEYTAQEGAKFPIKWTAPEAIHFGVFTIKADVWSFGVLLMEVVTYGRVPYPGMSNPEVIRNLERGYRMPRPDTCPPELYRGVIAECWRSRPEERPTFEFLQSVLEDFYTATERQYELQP

[6] = ACAD10 (Q6JQN1-5), experiment wp084
[7] = AURKB Q96GD4-5, experiment wp131
[8] = AURKB Q96GD4-5, experiment wp137

## Cc1cnc(Nc2ccc(N3CCN(CCOCCOCCNC(=O)COc4cccc5c4C(=O)N(C4CCC(=O)NC4=O)C5=O)CC3)cc2)nc1Nc1cccc(S(=O)(=O)NC(C)(C)C)c1 (stereo not drawn) [JWG.118]
[1]; Experiment wp071
  logFC FASTKD2 (Q9NYY8): −0.4341
[2]; GK P32189-3, experiment wp071
  logFC: −0.4317
[3]; experiment wp071
  logFC ALDH18A1: −0.4227

## CNC(=O)c1ccccc1Nc1cc(Nc2ccc(N3CCN(CCOCCOCCNC(=O)CNc4cccc5c4C(=O)N(C4CCC(=O)NC4=O)C5=O)CC3)cc2OC)ncc1C(F)(F)F (stereo not drawn) [MFH.5.103.1]
[2]; experiment wp076
  logFC RPS6KA1: −1.583
  logFC RPS6KA1 (Q15418-2): −1.583
[3]; experiment wp076
  logFC ALDH18A1: −0.4191

## CN(C)C(=O)c1cc2cnc(Nc3ccc(N4CCN(CCCCNC(=O)COc5cccc6c5C(=O)N(C5CCC(=O)NC5=O)C6=O)CC4)cn3)nc2n1C1CCCC1 (stereo not drawn) [BSJ.04.132]
[1]; Experiment wp084
  logFC FASTKD2 (Q9NYY8): −0.5107
[2]; [6]
  logFC: −0.7484
[2]; GK P32189-3, experiment wp084
  logFC: −0.383
[2]; experiment wp084
  logFC PDK3: −0.7397
  logFC PDK3 (Q15120-2): −0.7397
[3]; experiment wp084
  logFC ALDH18A1: −0.6568

## C[C@@H]1C[C@@H](O)c2ncnc(N3CCN(C(=O)[C@H](CNCCCCCCCCCCc4cccc5c4C(=O)N(C4CCC(=O)NC4=O)C5=O)c4ccc(Cl)cc4)CC3)c21 (stereo partly drawn) [INY.03.041.01]
[1]; Experiment wp118
  logFC FASTKD2 (Q9NYY8): −0.4539
[3]; experiment wp118
  logFC ALDH18A1: −0.376

## O=C(COc1cccc2c1C(=O)N(C1CCC(=O)NC1=O)C2=O)NCCCCCCCC(=O)NC1(c2ccc(-c3nc4ccn5c(=O)[nH]nc5c4cc3-c3ccccc3)cc2)CCC1 (stereo not drawn) [INY.01.140.1]
[1]; Experiment wp081
  logFC FASTKD2 (Q9NYY8): −0.4053
[2]; experiment wp081
  logFC PDK3: −0.3755
  logFC PDK3 (Q15120-2): −0.3755
[3]; experiment wp081
  logFC ALDH18A1: −0.4491

## C=CCn1c(=O)c2cnc(Nc3ccc(N4CCN(CCCNc5cccc6c5C(=O)N(C5CCC(=O)NC5=O)C6=O)CC4)cc3)nc2n1-c1cccc(C(C)(C)O)n1 (stereo not drawn) [ZNL.02.096]
[1]; Experiment wp118
  logFC FASTKD2 (Q9NYY8): −0.4605
[2]; GK P32189-3, experiment wp056
  logFC: −0.3867
[2]; experiment wp056
  logFC PDK3: −0.3528
  logFC PDK3 (Q15120-2): −0.3528
[3]; experiment wp118
  logFC ALDH18A1: −0.4405

## CC(C)S(=O)(=O)c1ccccc1Nc1nc(Nc2ccc(N3CCN(CCOCCOCCNC(=O)CNc4cccc5c4C(=O)N(C4CCC(=O)NC4=O)C5=O)CC3)cc2)ncc1Cl (stereo not drawn) [TL12.186]
[4]; experiment wp016
  logFC LIMK2: −0.7395
  logFC of LIMK2: −0.7395
[4]; experiment wp131
  logFC LIMK2: −1.323
  logFC of LIMK2: −1.323
[4]; experiment wp137
  logFC LIMK2: −1.179
  logFC of LIMK2: −1.179
[1]; Experiment wp137
  logFC FASTKD2 (Q9NYY8): −0.3625
[5]; experiment wp131
  logFC BLK: −2.497
[5]; experiment wp137
  logFC BLK: −2.115
[5]; BLK P51451, experiment wp016
  logFC of BLK: −1.475
[5]; Experiment wp016
  logFC of BLK (P51451): −1.475
[5]; Experiment wp131
  logFC of BLK (P51451): −2.497
[5]; Experiment wp137
  logFC of BLK (P51451): −2.115
[2]; [7]
  logFC: −0.9938
  logFC AURKB: −0.9938
[2]; [8]
  logFC: −0.9711
  logFC AURKB: −0.9711
[2]; Accession O60566-3, experiment wp131, direction down
  logFC BUB1B: −0.541
[2]; Accession O60566-3, experiment wp137, direction down
  logFC BUB1B: −0.5516
[2]; experiment wp016
  logFC of SRC: −0.3573
  logFC LCK: −0.7129
  logFC CDK9 (P50750-2): −0.6414
  logFC PRKAA1 (Q13131-2): −0.434
  logFC LCK (P06239-3): −0.7129
[2]; experiment wp131
  logFC of SRC: −0.7777
  logFC LCK: −1.455
  logFC ABL2 (P42684-5): −0.8023
  logFC CDK9 (P50750-2): −1.451
  logFC PRKAA1 (Q13131-2): −0.5988
  logFC of ABL2 (P42684-5): −0.8023
  logFC of MARK2 (Q7KZI7-14): −0.4868
  logFC LCK (P06239-3): −1.455
[2]; experiment wp137
  logFC of SRC: −0.5738
  logFC LCK: −1.373
  logFC RPS6KA1: −0.4514
  logFC CDK9 (P50750-2): −1.511
  logFC PRKAA1 (Q13131-2): −0.641
  logFC RPS6KA1 (Q15418-2): −0.4514
  logFC of CDK17 (Q00537-2): −0.7026
  logFC LCK (P06239-3): −1.373
[2]; Accession P48730-2, experiment wp137, direction down
  logFC CSNK1D: −0.4721
[2]; Accession Q00537-2, experiment wp137
  logFC of CDK17: −0.7026
[2]; BUB1B (O60566-3), experiment wp131
  logFC BUB1B: −0.541
[2]; BUB1B (O60566-3), experiment wp137
  logFC BUB1B: −0.5516
[2]; CSNK1D P48730-2, experiment wp137
  logFC CSNK1D: −0.4721
[2]; Experiment wp016, direction down
  logFC PRKAA1 (Q13131-2): −0.434
[2]; Experiment wp131, direction down
  logFC PRKAA1 (Q13131-2): −0.5988
[2]; Experiment wp137, direction down
  logFC PRKAA1 (Q13131-2): −0.641
[2]; MARK2 Q7KZI7-14, experiment wp131
  logFC: −0.4868
[2]; PIP5K1A (Q99755-3), experiment wp131
  logFC: −0.3436
[2]; PIP5K1A (Q99755-3), experiment wp137
  logFC: −0.4526

## CC(=O)c1c(C)c2cnc(Nc3ccc(N4CCN(CCOCCOCCOCCNC(=O)COc5cccc6c5C(=O)N(C5CCC(=O)NC5=O)C6=O)CC4)cn3)nc2n(C2CCCC2)c1=O (stereo not drawn) [BSJ.03.123]
[1]; Experiment wp084
  logFC FASTKD2 (Q9NYY8): −0.51
[2]; [6]
  logFC: −0.5275
[2]; GK P32189-3, experiment wp084
  logFC: −0.4109
[2]; experiment wp084
  logFC PDK3: −0.5908
  logFC PDK3 (Q15120-2): −0.5908
[2]; protein HK1 (P19367-3), experiment wp084, down
  logFC HK1: −0.3484
[3]; experiment wp084
  logFC ALDH18A1: −0.5282

## CC(C)(C)c1nc(-c2cccc(NS(=O)(=O)c3c(F)cccc3F)c2F)c(-c2ccnc(NCCOCCNC(=O)CCOCCOCCNc3cccc4c3CN(C3CCC(=O)NC3=O)C4=O)n2)s1 (stereo not drawn) [DD.03.107]
[1]; Experiment wp147, 1 uM
  logFC FASTKD2 (Q9NYY8): −0.7236
[1]; Experiment wp147, 2 uM
  logFC FASTKD2 (Q9NYY8): −0.6784
[1]; Experiment wp147, 4 uM
  logFC FASTKD2 (Q9NYY8): −1.273
[2]; ACAD10 (Q6JQN1-5), experiment wp147, 1 uM
  logFC: −0.5536
[2]; ACAD10 (Q6JQN1-5), experiment wp147, 2 uM
  logFC: −0.5234
[2]; ACAD10 (Q6JQN1-5), experiment wp147, 4 uM
  logFC: −1.061
[2]; GK P32189-3, experiment wp147, 1 uM
  logFC: −0.4979
[2]; GK P32189-3, experiment wp147, 2 uM
  logFC: −0.4324
[2]; GK P32189-3, experiment wp147, 4 uM
  logFC: −0.7592
[2]; experiment wp147, 1 uM
  logFC PDK3: −0.5119
  logFC PDK3 (Q15120-2): −0.5119
[2]; experiment wp147, 2 uM
  logFC PDK3: −0.5406
  logFC PDK3 (Q15120-2): −0.5406
[2]; experiment wp147, 4 uM
  logFC PDK3: −1.004
  logFC PDK3 (Q15120-2): −1.004
[3]; experiment wp147, 1 uM
  logFC ALDH18A1: −0.6536
[3]; experiment wp147, 2 uM
  logFC ALDH18A1: −0.7374
[3]; experiment wp147, 4 uM
  logFC ALDH18A1: −1.326
